Measured values published in patent publication US6689773B2, “Uracil substituted phenyl sulfamoyl carboxamides” (BASF Aktiengesellschaft, priority 2000, dated 2004).

Experiments:
Format in all cases: in vivo
[1] = test system: AMBEL, Ragweed, Common, Ambrosia artemiisifolia, L.; assay: Postemergence herbicidal evaluation (Example 147); settings: rating scale 0-9, two to three weeks after treatment
Summary of the method: (§1)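 Seedlings grown about two weeks, then sprayed (nozzle at 40 psi) with compound in 80/20 acetone/water plus 1.0% methylated seed oil at about 0.016 to 0.032 kg/ha. Kept in greenhouse; visual injury rated 0-9 versus untreated control two to three weeks after treatment; replicate tests averaged.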

[2] = test system: CHEAL, Lambsquarters, Chenopodium album, L. Common; assay: Postemergence herbicidal evaluation (Example 147); settings: rating scale 0-9, two to three weeks after treatment
Summary of the method: as §1

[3] = test system: SETVI, Green foxtail, Setaria viridis, (L.)Beau; assay: Postemergence herbicidal evaluation (Example 147); settings: rating scale 0-9, two to three weeks after treatment
Summary of the method: as §1

[4] = test system: ABUTH, Velvetleaf, Abutilon theophrasti, Medic.; assay: Postemergence herbicidal evaluation (Example 147); settings: rating scale 0-9, two to three weeks after treatment
Summary of the method: as §1

[5] = test system: ALOMY, Blackgrass, Alopecurus myosuroides; assay: Postemergence herbicidal evaluation (Example 147); settings: rating scale 0-9, two to three weeks after treatment
Summary of the method: as §1

[6] = test system: TRZAW, Winter wheat, Tritium Aestivum, L. (Winter); assay: Postemergence herbicidal evaluation (Example 147); settings: rating scale 0-9, two to three weeks after treatment
Summary of the method: as §1

[7] = test system: GLXMA, Soybean, Glycine max, (L.) Merr.; assay: Postemergence herbicidal evaluation (Example 147); settings: rating scale 0-9, two to three weeks after treatment
Summary of the method: as §1

[8] = test system: DIGSA, Crabgrass, (Hairy) L, Digitaria sanguinalis, (L)Scop; assay: Postemergence herbicidal evaluation (Example 147); settings: rating scale 0-9, two to three weeks after treatment
Summary of the method: as §1

[9] = test system: ECHCG, Barnyardgrass, Echinochloa crusgalli, (L.)Beau; assay: Postemergence herbicidal evaluation (Example 147); settings: rating scale 0-9, two to three weeks after treatment
Summary of the method: as §1

[10] = test system: IPOHE, Morningglory, Ivyleaf, Ipomoea hederacea, (L)Jacq.; assay: Postemergence herbicidal evaluation (Example 147); settings: rating scale 0-9, two to three weeks after treatment
Summary of the method: as §1

[11] = test system: ZEAMX, Field corn, Zea mays L.; assay: Postemergence herbicidal evaluation (Example 147); settings: rating scale 0-9, two to three weeks after treatment
Summary of the method: as §1

[12] = test system: XANST, Cocklebur, Xanthium strumariam; assay: Postemergence herbicidal evaluation (Example 147); settings: rating scale 0-9, two to three weeks after treatment
Summary of the method: as §1

[13] = test system: AMBEL, Ragweed, Common, Ambrosia artemiisifolia, L.; assay: Preemergence herbicidal evaluation (Example 148); settings: rating scale 0-9, two to four weeks after treatment
Summary of the method: (§2)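 Each species was planted separately in cups, its seed mixed into potting soil over roughly an inch of soil. Spraying with compound in aqueous acetone followed planting (~0.125–0.250 kg/ha). Overall appearance, chlorosis and stand were compared with a control after 2–4 weeks.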

[14] = test system: CHEAL, Lambsquarters, Chenopodium album, L. Common; assay: Preemergence herbicidal evaluation (Example 148); settings: rating scale 0-9, two to four weeks after treatment
Summary of the method: as §2

[15] = test system: SETVI, Green foxtail, Setaria viridis, (L.)Beau; assay: Preemergence herbicidal evaluation (Example 148); settings: rating scale 0-9, two to four weeks after treatment
Summary of the method: as §2

[16] = test system: ABUTH, Velvetleaf, Abutilon theophrasti, Medic.; assay: Preemergence herbicidal evaluation (Example 148); settings: rating scale 0-9, two to four weeks after treatment
Summary of the method: as §2

[17] = test system: ALOMY, Blackgrass, Alopecurus myosuroides; assay: Preemergence herbicidal evaluation (Example 148); settings: rating scale 0-9, two to four weeks after treatment
Summary of the method: as §2

[18] = test system: TRZAW, Winter wheat, Tritium Aestivum, L. (Winter); assay: Preemergence herbicidal evaluation (Example 148); settings: rating scale 0-9, two to four weeks after treatment
Summary of the method: as §2

[19] = test system: GLXMA, Soybean, Glycine max, (L.) Merr.; assay: Preemergence herbicidal evaluation (Example 148); settings: rating scale 0-9, two to four weeks after treatment
Summary of the method: as §2

[20] = test system: DIGSA, Crabgrass, (Hairy) L, Digitaria sanguinalis, (L)Scop; assay: Preemergence herbicidal evaluation (Example 148); settings: rating scale 0-9, two to four weeks after treatment
Summary of the method: as §2

[21] = test system: ECHCG, Barnyardgrass, Echinochloa crusgalli, (L.)Beau; assay: Preemergence herbicidal evaluation (Example 148); settings: rating scale 0-9, two to four weeks after treatment
Summary of the method: as §2

[22] = test system: IPOHE, Morningglory, Ivyleaf, Ipomoea hederacea, (L)Jacq.; assay: Preemergence herbicidal evaluation (Example 148); settings: rating scale 0-9, two to four weeks after treatment
Summary of the method: as §2

[23] = test system: ZEAMX, Field corn, Zea mays L.; assay: Preemergence herbicidal evaluation (Example 148); settings: rating scale 0-9, two to four weeks after treatment
Summary of the method: as §2

[24] = test system: XANST, Cocklebur, Xanthium strumariam; assay: Preemergence herbicidal evaluation (Example 148); settings: rating scale 0-9, two to four weeks after treatment
Summary of the method: as §2

Structure (SMILES): CCNS(=O)(=O)NC(=O)c1cc(-n2c(=O)cc(C(F)(F)F)n(C)c2=O)c(F)cc1Cl [Example 80]
- Postemergence herbicidal rating AMBEL ([1]; rate 0.016 kg/ha): 7.0
- Postemergence herbicidal rating AMBEL ([1]; rate 0.032 kg/ha): 8.0
- Postemergence herbicidal rating CHEAL ([2]; rate 0.016 kg/ha): 3.0
- Postemergence herbicidal rating CHEAL ([2]; rate 0.032 kg/ha): 4.0
- Postemergence herbicidal rating SETVI ([3]; rate 0.016 kg/ha): 5.0
- Postemergence herbicidal rating SETVI ([3]; rate 0.032 kg/ha): 6.0
- Postemergence herbicidal rating ABUTH ([4]; rate 0.016 kg/ha): 7.0
- Postemergence herbicidal rating ABUTH ([4]; rate 0.032 kg/ha): 9.0
- Postemergence herbicidal rating ALMOY ([5]; rate 0.016 kg/ha): 0.0
- Postemergence herbicidal rating ALMOY ([5]; rate 0.032 kg/ha): 1.0
- Postemergence herbicidal rating TRZAW ([6]; rate 0.016 kg/ha): 3.0
- Postemergence herbicidal rating TRZAW ([6]; rate 0.032 kg/ha): 4.0
- Postemergence herbicidal rating GLXMA ([7]; rate 0.016 kg/ha): 8.0
- Postemergence herbicidal rating GLXMA ([7]; rate 0.032 kg/ha): 8.0
- Postemergence herbicidal rating DIGSA ([8]; rate 0.016 kg/ha): 3.0
- Postemergence herbicidal rating DIGSA ([8]; rate 0.032 kg/ha): 4.0
- Postemergence herbicidal rating ECHCG ([9]; rate 0.016 kg/ha): 4.0
- Postemergence herbicidal rating ECHCG ([9]; rate 0.032 kg/ha): 6.0
- Postemergence herbicidal rating IPOHE ([10]; rate 0.016 kg/ha): 9.0
- Postemergence herbicidal rating IPOHE ([10]; rate 0.032 kg/ha): 9.0
- Postemergence herbicidal rating ZEAMX ([11]; rate 0.016 kg/ha): 1.5
- Postemergence herbicidal rating ZEAMX ([11]; rate 0.032 kg/ha): 4.0
- Postemergence herbicidal rating XANST ([12]; rate 0.016 kg/ha): 8.0
- Postemergence herbicidal rating XANST ([12]; rate 0.032 kg/ha): 9.0
- Preemergence herbicidal rating AMBEL ([13]; rate 0.125 kg/ha): 1.0
- Preemergence herbicidal rating AMBEL ([13]; rate 0.25 kg/ha): 3.0
- Preemergence herbicidal rating CHEAL ([14]; rate 0.125 kg/ha): 5.0
- Preemergence herbicidal rating CHEAL ([14]; rate 0.25 kg/ha): 8.0
- Preemergence herbicidal rating SETVI ([15]; rate 0.125 kg/ha): 0.0
- Preemergence herbicidal rating SETVI ([15]; rate 0.25 kg/ha): 0.0
- Preemergence herbicidal rating ABUTH ([16]; rate 0.125 kg/ha): 1.0
- Preemergence herbicidal rating ABUTH ([16]; rate 0.25 kg/ha): 5.0
- Preemergence herbicidal rating ALMOY ([17]; rate 0.125 kg/ha): 0.0
- Preemergence herbicidal rating ALMOY ([17]; rate 0.25 kg/ha): 0.0
- Preemergence herbicidal rating TRZAW ([18]; rate 0.125 kg/ha): 0.0
- Preemergence herbicidal rating TRZAW ([18]; rate 0.25 kg/ha): 0.0
- Preemergence herbicidal rating GLXMA ([19]; rate 0.125 kg/ha): 0.0
- Preemergence herbicidal rating GLXMA ([19]; rate 0.25 kg/ha): 0.0
- Preemergence herbicidal rating DIGSA ([20]; rate 0.125 kg/ha): 0.0
- Preemergence herbicidal rating DIGSA ([20]; rate 0.25 kg/ha): 1.0
- Preemergence herbicidal rating ECHCG ([21]; rate 0.125 kg/ha): 0.0
- Preemergence herbicidal rating ECHCG ([21]; rate 0.25 kg/ha): 3.0
- Preemergence herbicidal rating IPOHE ([22]; rate 0.125 kg/ha): 0.0
- Preemergence herbicidal rating IPOHE ([22]; rate 0.25 kg/ha): 0.0
- Preemergence herbicidal rating ZEAMX ([23]; rate 0.125 kg/ha): 0.0
- Preemergence herbicidal rating ZEAMX ([23]; rate 0.25 kg/ha): 0.0
- Preemergence herbicidal rating XANST ([24]; rate 0.125 kg/ha): 0.0
- Preemergence herbicidal rating XANST ([24]; rate 0.25 kg/ha): 1.0
